Source: patent publication US5321037A, “Isoxazole derivatives for use as cerebro-active drugs and central muscle relaxants” (Sankyo Company, Limited, priority 1986, dated 1994)
Structures can show the parent of a compound that is named as a salt. Where two headings read alike, the source gives them in different places.

Experiments:
[1] = system: decerebrate rigidity in rats; assay: Suppression of decerebrate rigidity in rats; type: in vivo, rat
Excerpt: The suppression of decerebrate rigidity in laboratory animals, such as rats, is a well known model for control of human spasticity and/or rigidity.
In the test method, a rat was anesthetized with halothane and fixed on a stereotaxic apparatus (SR-5, Narishige). In accordance with the brain atlas by Pellegrino et al., [L. J. Pellegrino, A. S. Pellegrino & A. J. Cushman: A Stereotaxic Atlas of the Rat Brain, Plenum Press, New York and London (1967)], an electrode 0.7 mm in diameter, which was insulated except for 1 mm at the tip, was inserted bilaterally into the midbrain reticular formation (AP: 0, L: ±1.5, H: -3.0). A clip serving as the reference electrode was fixed on the temporal muscle. Through these electrodes, a high frequency electric current (100 KHz, 10 to 20 mA) was applied from a lesion generator (Glass Co., LM4A) for 2 to 3 minutes to cauterize electrically this brain region.
The rat was then immediately set free from the stereotaxic apparatus. A polyethylene cannula was inserted into the duodenum and fixed with an acrylic resin (Aron Alfa, Sankyo Co., Ltd.). After completion of these operations, halothane anesthesia was immediately discontinued.
After 1.5 hours, when the animal awoke from the anesthesia, the rat was fixed on an apparatus devised in our laboratory for a hind leg fixation. Both hind legs were fixed at the anterior part of the ankle joints. Both hindlimb paws were then pushed in 4 mm for 6 seconds in every minute. The resulting repulsive tension was drawn on a polygraph through a strain gauge.
The test compounds were suspended in a 0.5% w/v CMC (carboxymethyl cellulose) aqueous solution and were administered orally (p.o.) or intraperitoneally (i.p.).
The results are summarized in the following Table 7, where the compounds of the present invention are identified by the number of the foregoing Example in which each was prepared, Compound X is the known compound eperisone hydrochloride, and Compound Y is the known compound afloqualone.

[2] = system: decerebrate rigidity (cats); assay: Suppression of decerebrate rigidity (cats); type: in vivo, cat; settings: 50 mg/kg intraduodenal
Excerpt: Adult cats each weight 3.0 to 4.5 kg were used. Under ether anesthesia, the trachea was cannulated and the common carotid arteries were ligated at both sides. The cat was decerebrated by suction at the precollicular level. Ether anesthesia was then immediately discontinued. A pair of needle electrodes was inserted into the neck muscle in order to pick up any EMG muscular discharges. The EMG discharge was amplified and recorded on a pen-writing recorder, along with an integration of the EMG discharge. Recording was started at least 2 hours after withdrawal of anesthesia. Blood pressure induced from the femoral artery, as well as body temperature and heart beat, were recorded and monitored throughout the experiment.
After stable EMG discharges were obtained, the test compounds suspended in 0.5% CMC solution were administered into the duodenum through a previously inserted cannula. The effect of the test compound was expressed as the ratio of the integrated EMG discharge after administration relative to the value before administration.

[3] = system: thiopental anesthesia; assay: Potentiation of thiopental anesthesia (mice); type: in vivo, mouse (ddY strain); settings: for Anesthesia time: thiopental 30 mg/kg after one hour
Method: In the test method, male adult mice of ddY strain each weighing 20 to 30 g were used as divided groups each made up of 5 to 7 mice. Test compounds suspended in 0.5% CMC solution were orally administered. After one hour, thiopental (30 mg/kg) was injected into the tail vein, and the time required for the mouse to recover the righting reflex was measured.

[4] = system: spinal reflex in cats; assay: Effect on spinal reflex in cats; type: in vivo, cat
Method: Adult cats weighing 3.0 to 4.5 kg each were used. After induction of anesthesia with ether, the animal was anesthetized by intravenous injection of 50 mg/kg of a-chloralose. After the trachea was cannulated, the animal was fixed on a stereotaxic apparatus, and the lumbosacral spinal cord was exposed by laminectomy from L3 to S1. The ventral roots of the right side were cut from L6 to S1 as distal as possible and the cut ends were ligated with cotton thread previously immersed in Ringer's solution. The exposed spinal cord was covered with warmed mineral oil and maintained at 37° C. The ventral root, either L7 or S1, was fixed on a pair of platinum wire electrodes. A pair of collar-type electrodes was implanted on the ipsilateral tibial nerve and the saphenous nerve, for stimulation. After completion of all these operations, the cat was immobilized with pancronium bromide (0.5 mg/kg, i.v.) and maintained by artificial respiration (40/minute). Recording was started at least 2 hours after withdrawal of ether anesthesia. A single square pulse (0.01 to 0.1 msecond pulse width, supramaximal intensity) was applied to the nerve at a frequency of 0.3 Hz from an electronic stimulator. […] In a similar manner to Experiment 2, the blood pressure, heart beat and body temperature of the animal were recorded and monitored. Compounds to be tested were also administered in a similar manner.

[5] = Rattus norvegicus, ip, 50 mg/kg i.p., read-out: Maximum inhibition
[6] = Rattus norvegicus, po, 100 mg/kg p.o., read-out: Maximum inhibition
[7] = Rattus norvegicus, po, read-out: Maximum inhibition

## Cc1cc(=O)n(CC(O)CN2CCOCC2)o1 (centres unmarked) [Compound 3a]
[1]; 50 mg/kg i.p.
  Duration of the effect: 50 min
  Onset of the effect: 5 min
[1]; [5]
  inhibition in vivo at 50 mg/kg: 30%

## O=c1cc(-c2ccc(Cl)cc2)on1CC(O)CN1CCOCC1 (centres unmarked) [Compound 4a]
[1]; 50 mg/kg i.p.
  Duration of the effect: > 120 min
  Onset of the effect: 5 min
[1]; [5]
  inhibition in vivo at 50 mg/kg: 80%

## CC(C)NCC(O)Cn1oc(-c2ccccc2)c(Cl)c1=O (centres unmarked) [Compound 5a]
[1]; 50 mg/kg i.p.
  Duration of the effect: > 120 min
  Onset of the effect: 5 min
[1]; [5]
  inhibition in vivo at 50 mg/kg: 95%

## CC(C)NCC(O)Cn1oc(-c2ccccc2)cc1=O (centres unmarked) [Compound 6a]
[1]; 50 mg/kg i.p.
  Duration of the effect: 60 min
  Onset of the effect: 5 min
[1]; [5]
  inhibition in vivo at 50 mg/kg: 30%

## CC(C)NCC(O)Cn1oc(-c2ccc(Cl)cc2)cc1=O (centres unmarked) [Compound 7a]
[1]; 50 mg/kg i.p.
  Duration of the effect: 60 min
  Onset of the effect: 5 min
[1]; [5]
  inhibition in vivo at 50 mg/kg: 75%

## CCc1ccc(C(=O)C(C)CN2CCCCC2)cc1 (centres unmarked) [Compound X, eperisone hydrochloride, reference compound]
[1]; 10 mg/kg p.o.
  Duration of the effect: > 30 min
  Onset of the effect: 10 min
[1]; 30 mg/kg p.o.
  Duration of the effect: 45 min
  Onset of the effect: 10 min
[1]; 50 mg/kg p.o.
  Duration of the effect: 30 min
  Onset of the effect: 10 min
[1]; 100 mg/kg p.o.
  Duration of the effect: 60 min
  Onset of the effect: 5 min
[1]; Rattus norvegicus, po, 10 mg/kg p.o., read-out: Maximum inhibition
  inhibition in vivo at 10 mg/kg: 30%
[1]; Rattus norvegicus, po, 30 mg/kg p.o., read-out: Maximum inhibition
  inhibition in vivo at 30 mg/kg: 30%
[1]; Rattus norvegicus, po, 50 mg/kg p.o., read-out: Maximum inhibition
  inhibition in vivo at 50 mg/kg: 50%
[1]; [6]
  inhibition in vivo at 100 mg/kg: 50%
[2]
  Inhibition of decerebrate rigidity, in words: decerebrate rigidity was inhibited
  Side effects (vomiting, changes in blood pressure and heart beat): induced vomiting immediately after administration accompanied with abrupt changes in blood pressure and heart beat
  Time after administration at which decerebrate rigidity returned: 30 min
[3]; 10 mg/kg p.o.
  Anesthesia time: 182.0 ± 9.8 s
[3]; 30 mg/kg p.o.
  Anesthesia time: 192.0 ± 18.3 s
[3]; 100 mg/kg p.o.
  Anesthesia time: 247.0 ± 34.9 s

## Cc1ccccc1-n1c(CF)nc2ccc(N)cc2c1=O [Compound Y, afloqualone, reference compound]
[1]; 5 mg/kg p.o.
  Duration of the effect: 60 min
  Onset of the effect: 10 min
[1]; 10 mg/kg p.o.
  Duration of the effect: 45 min
  Onset of the effect: 10 min
[1]; 30 mg/kg p.o.
  Duration of the effect: 120 min
  Onset of the effect: 10 min
[1]; [7]
  inhibition in vivo at 5 mg/kg: 25%
  inhibition in vivo at 10 mg/kg: 55%
  inhibition in vivo at 30 mg/kg: 70%
[3]; 10 mg/kg p.o.
  Anesthesia time: 242.0 ± 10.0 s
[3]; 30 mg/kg
  Prolongation of the duration of anesthesia, in words: did significantly prolong the duration of anesthesia
[3]; 30 mg/kg p.o.
  Anesthesia time: 4657.0 ± 636.6 s

## Cc1c(-c2ccccc2)on(CC(O)CN2CCOCC2)c1=O.Cl (centres unmarked) [Example 2, 2-(2-Hydroxy-3-morpholinopropyl)-4-methyl-5-phenyl-3-isoxazolone hydrochloride]
[1]; 100 mg/kg i.p.
  Duration of the effect: > 90 min
  Onset of the effect: 5 min
[1]; Rattus norvegicus, ip, 100 mg/kg i.p., read-out: Maximum inhibition
  inhibition in vivo at 100 mg/kg: 60%

## Cc1c(OCC(O)CN2CCOCC2)noc1-c1ccccc1 (centres unmarked) [Example 5, 3-(2-Hydroxy-3-morpholinopropoxy)-4-methyl-5-phenylisoxazole]
[1]; 100 mg/kg p.o.
  Duration of the effect: > 90 min
  Onset of the effect: 5 min
[1]; [6]
  inhibition in vivo at 100 mg/kg: 70%

## NC(=O)OCC(O)Cn1oc2ccc(Cl)cc2c1=O (centres unmarked) [Example 15, 2-(3-Carbamoyloxy-2-hydroxypropyl)-5-chloro-1,2-benzisoxazol-3-one]
[1]; 50 mg/kg i.p.
  Duration of the effect: > 60 min
  Onset of the effect: 5 min
[1]; [5]
  inhibition in vivo at 50 mg/kg: 50%

## NC(=O)OCC(O)COc1ccc(Cl)cc1 (centres unmarked) [chlorphenesin carbamate, reference compound]
[4]; 100 mg/kg
  Effect on spinal reflexes, compared with Compounds 1a and 2a: A similar effect was observed
[4]; in vivo
  Mechanism shown by spinal reflexes: interneuron blockers
